Values quoted from earlier work as cited in patent US20060099690A1, “Extraction, purification and conversion of flavonoids from plant biomass” (Her Majesty the Queen in Right of Canada, as Repre, priority 2002, published 2006).

Columns and labels:
[1] = test system: mouse hippocampal cell line HT-22 and rat primary neurons; settings: HT-22 cells and rat primary neurons
[2] = four hours after a meal; hydrolyzed plasma; 3'- and 4'-methylquercetin
pain transmission = settings: antinociceptive activity
serum triglycerides = settings: 0.5% quercetin in diet; mice or rats

SMILES | protection from oxidative stress caused by glutamate [1] | total concentration of metabolites in the plasma [2] | dose with the same effect as 2.5 mg of morphine sulfate/Kg (pain transmission) | effect on serum triglycerides (serum triglycerides)
O=c1cc(-c2ccc(O)cc2)oc2cc(O)cc(O)c12 [apigenim] | inactive | – | – | –
O=c1c(O)c(-c2ccc(O)c(O)c2)oc2cc(O)ccc12 [fisetin] | quite protective | – | – | –
O=c1c(O[C@@H]2O[C@H](CO)[C@@H](O)[C@H](O)[C@H]2O)c(-c2ccc(O)c(O)c2)oc2cc(O)cc(O)c12 [isoquercitrin, quercetin-3-O-beta glycoside] | – | 33.2 µM | – | –
O=c1c(O)c(-c2ccc(O)cc2)oc2cc(O)cc(O)c12 [kaempferol] | quite protective | – | – | –
O=c1c(O)c(-c2ccc(O)c(O)c2)oc2cc(O)cc(O)c12 [quercetin] | quite protective | 11.2 µM | 50 mg/Kg body weight | significant lowering
C[C@@H]1O[C@@H](Oc2c(-c3ccc(O)c(O)c3)oc3cc(O)cc(O)c3c2=O)[C@H](O)[C@H](O)[C@H]1O [quercitrin, quercetin 3-rhamnoside, reference compound] | – | failed to detect any metabolites | – | –
C[C@@H]1O[C@@H](OC[C@H]2O[C@@H](Oc3c(-c4ccc(O)c(O)c4)oc4cc(O)cc(O)c4c3=O)[C@H](O)[C@@H](O)[C@@H]2O)[C@H](O)[C@H](O)[C@H]1O [rutin] | – | 2.5 µM | – | –
